# Experimental data published in article PMC6801585, “Improved In Vivo Anti-Tumor and Anti-Metastatic Effect of GnRH-III-Daunorubicin Analogs on Colorectal and Breast Carcinoma Bearing Mice” (International Journal of Molecular Sciences, 2019).
# Several values for one entry are separate records, joined by “and”; a condition that tells them apart may be missing. Identical values can stand only once.
# Tests used:
# [1] = test system: 4T1 mice breast carcinoma; experiment: Orthotopic 4T1 mice breast tumor model; type: in vivo, BALB/c female mice
# Procedure: Adult BALB/c female mice (20–25 g) were used in this experiment and kept under the same conditions, as described above. 4T1 mice breast carcinoma cells, maintained as described above, were orthotopically injected into the lower quarter of the right mammary fat pad line of mice, whereby 1 × 10^6 cells were used per animal, suspended in 50 µL M199 medium (Sigma Aldrich). The treatment started seven days after cells inoculation, when the average tumor volume was 38 mm^3, by i.p. administration of the conjugates or free Dau. Four groups with seven animals per group were established and treated with certain doses and schedules. The mice in the control group were treated with sterile water, while mice in free Dau group were treated with a dose of 1 mg/kg, once per week, on days 7, 14 and 21 after cells inoculation. […] Animal weight and tumor volumes were measured initially when the treatment started and at periodic intervals according to the treatment schedule. A digital caliper was used to measure the longest (a) and the shortest diameter (b) of a given tumor. The tumor volume was calculated while using the formula V = ab^2 × π/6, whereby a and b represent the measured parameters (length and width). The termination of the experiment was initiated 28 days after cell inoculation, respectively 22 days after treatment start, since the average volume of the tumors in the control group reached 1800 mm^3. The mice from all groups were sacrificed by cervical dislocation. The anti-tumor effects and the liver toxicity of the conjugates and free Dau were evaluated based on the tumor volume and the liver weight/body weight ratio in each group. Moreover, the anti-proliferative and anti-metastatic activity of the conjugates and free Dau was evaluated in primary tumor and in metastases on the peripheral organs.
# The routinely formalin-fixed tumors were dehydrated in a graded series of ethanol, infiltrated with xylene and embedded into paraffin at a temperature not exceeding 60 °C. Two micron thick sections were mounted on Superfrost slides (Thermo Shandon, Runcorn, UK) and then manually deparaffinized. To block endogenous peroxidase activity, slides were treated for 20 min. at r.t. with 3% H2O2 in methanol. The slides were immersed in 6% citrate buffer (pH = 6) and exposed to 98 °C water bath for 40 min. […] After washing, secondary antibody Biotinylated Link (Dako) was applied for 10 min. at r.t. For visualization, supersensitive one step polymer HRP (Biogenex, Fremont, CA, USA) was used with 3-amino-9-ethylcarbazole (AEC) as chromogen. Staining without the primary antibody served as the negative control.
# Liver, spleen, lung and kidneys were harvested and fixed in formalin. All of the visible macro-metastatic lesions of the peripheral organs of seven animals from the control and treated groups on a stereo microscope Kruss MSZ5600 (Kruss Optronic, Hamburg, Germany) under 7–45-fold magnification were counted. The percentages of macro-metastatic lesions in the treated groups compared to the control group was calculated.
# Proliferation marker stained samples were evaluated on light microscope Olympus BH-2 microscope (Olympus, Tokyo, Japan). […] The proliferation index was calculated as percentage of KI-67 positive cells from all cells in the field of view.
# [2] = test system: HT-29 human colon carcinoma; experiment: Orthotopic HT-29 human colon tumor model; type: in vivo, SCID female mice
# Procedure: Immunodeficient, 6–8 weeks old SCID female mice (21–27 g) were used in this experiment. HT-29 colon carcinoma cells were subcutaneously injected into one side of the intrascapular region, whereby 2 × 10^6 cells were used per animal, suspended in 200 µL of M199 medium, in order to establish the xenografts with primary tumor. After two weeks, the mice with palpable tumors were sacrificed by cervical dislocation, disinfected with iodine and the subcutaneous tumor was aseptically dissected out.
# The abdomen of mice was disinfected with iodine and alcohol, a small midline incision (0.5 cm) was then made and the colorectal part of the intestine was exteriorized. Serosa of the site where the tumor pieces should be implanted were removed. Tumor tissue fragments of HT-29 human colon tumor were implanted on the top of the animal intestine, whereby an 8/0 surgical (polypropylene) suture was used to suture it on the wall of the intestine. The intestine was returned to the abdominal cavity and the abdominal wall was closed with 4/0 surgical (polyglycolic acid) sutures. The wound was disinfected with iodine and alcohol again and the animals were kept in a sterile environment.
# The treatments started seven days after tumor transplantation by i.p. administration of the free Dau and conjugates which were dissolved in sterile water for injection. Six mice per group were used. One group of mice was treated with free Dau at a dose of 1 mg/kg body weight on day 7, 13 and 20 after tumor transplantation. […] The control group was treated with sterile water. The experiment was terminated on day 30 after tumor transplantation (day 24 of treatment). […] The mice from all groups were sacrificed by cervical dislocation. Their tumors and livers were harvested and weighed.
# [3] = test system: MDA-MB-231 human breast carcinoma; experiment: Orthotopic MDA-MB-231 human breast tumor model; type: in vivo, SCID female mice
# Procedure: Adult SCID female mice (22–28 g) were used in this experiment and kept under the same conditions, as described above. […] The treatments started 21 days after cells inoculation, when average tumor volume was 40 mm^3. Free Dau and conjugates were administrated by i.p. injection. Four groups with seven animals per group were established and treated with certain doses and schedules. The mice in the control group were treated with sterile water, while the mice in the free Dau group were treated with a dose of 1 mg/kg, once per week, on day 21, 28, 35 and 42 after cell inoculation. […] The last treatment was performed on day 42 after cell inoculation, whereby a dose of 7.5 mg/kg Dau content was applied. The animal weights and tumor volumes were measured when the treatment was initiated and at periodic intervals according to the treatment schedule. The tumor volume was calculated in the same manner as described for mice breast carcinoma. […] The mice from all groups were sacrificed by cervical dislocation and primary tumors and livers were harvested and weighed, while number of animals with metastases were counted. The anti-tumor effects of the conjugates were evaluated measuring the tumor volume and the tumor weights, while the toxicity effects of conjugates were evaluated measuring liver weights and calculating the liver weight/body weight ratio.
# [4] = Chronic toxicity study on healthy mice; type: in vivo; conditions: healthy BALB/c female mice; i.p.; conjugates 15 mg/kg Dau content x5 (days 1,3,6,8,10); free Dau 1 mg/kg x2 (days 1,8); 14 days; 3 mice per group
# Procedure: Adult female inbred BALB/c mice from a specified pathogen free (SPF) breeding of the National Institute of Oncology (Budapest, Hungary), were used in acute and chronic toxicity studies and in orthotopic 4T1 mice breast tumor model experiment. The mice were kept in a sterile environment in Makrolon® cages at 22–24 °C (40–50% humidity), with a lighting regulation of 12/12 h light/dark. The animals had free access to tap water and were fed with a sterilized standard diet (VRF1, autoclavable, Akronom Kft., Budapest, Hungary) ad libitum.
# In order to determine the toxicity of the conjugates, in vivo acute and chronic toxicity studies were performed on healthy animals. In acute toxicity study, adult BALB/c female mice (20–23 g) were treated by a single intraperitoneal (i.p.) injection of conjugate 2, whereby different doses (3.125, 6.25, 12.5, 25 and 50 mg/kg Dau content) were administrated to each groups (three mice per group). In chronic toxicity studies, adult female BALB/c mice (23–26 g) were treated either with GnRH-III conjugates by i.p. administration with a dose of 15 mg/kg Dau content on day 1, 3, 6, 8 and 10, or with free Dau (1 mg/kg) on day 1 and 8. In case of the control group, sterile water was administered. Each group consisted of three mice. The toxicity was evaluated on the basis of life span, behavior and appearance of the mice, as well as the body weight. […]
# DU145 = experiment: In vitro anti-proliferative activity (MTT assay); type: cell-based; conditions: Homo sapiens, DU-145, DU145 (prostate), 24 h treatment + 48 h culture, average ± SD
# Procedure: (§1) In experimental procedures following cell lines were used, MDA-MB-231 and MCF-7 (human breast cancer), 4T1 (mice breast cancer), DU145 and PC-3 (human prostate cancer), A2780, OVCAR-3 and OVCAR-8 (human ovarian cancer), HepG2 (human liver cancer), A2058, WM983b, HT168-M1/9 and M24 (human melanoma), B16 (mice melanoma), H1975, H1650 and A549 (human lung cancer), HT-29 (human colorectal adenocarcinoma), C26 (mice colon cancer) and PANC-1 (pancreatic cancer) were cultured in RPMI 1640 Medium with glutamine (Roswell Park Memorial Institute Medium, Lonza, Basel, Switzerland). Moreover, U87MG (human malignant glioma) and MRC-5 (normal human fibroblast) were cultured in Dulbecco’s Modified Eagle’s Medium (DMEM, Lonza) and PE/CA-PJ15 and PE/CA-PJ41 (head and neck cancer) were cultured in Iscove’s Modified Dulbecco’s Medium (IMEM, Sigma Aldrich, St. Louis, MO, USA). Apart from the cell culture medium for OVCAR-3 cells, all media were supplemented with 10% heat-inactivated FBS (Fetal Bovine Serum, Euroclone, Milan, Italy) and 1% Penicillin/Streptomycin (Sigma Aldrich), while OVCAR-3 cells were cultured in 20% FBS containing RPMI medium. The cell lines were mainly obtained from ATCC, except for PE/CA-PJ15, PE/CA-PJ41 (ECACC), A2058 (kindly provided by L.A. Liotta, NCI, Bethesda, MD, USA), HT-168-M1/9 (derived from A2058), M24 (kind gift from B.M. Mueller, Scripps Research Institute, La Jolla, CA, USA) and WM983b (kindly provided by Meenhard Herlyn, Wistar Institute, Philadelphia, PA, USA). Cells were cultured in sterile T25 or T75 flasks with ventilation cap (Sarstedt, Nümbrecht, Germany) at 37 °C in a humidified atmosphere with 5% CO2.
# (§2) For the evaluation of the in vitro anti-proliferative activity of the GnRH-III conjugates and free Dau, the cell viability was determined by MTT assay (3-(4,5-dimethylthiazol-2-yl)-2,5-diphenyl-tetrazolium bromide) that was obtained from Sigma Aldrich. After standard harvesting of the cells by trypsin-EDTA (Lonza), 4 × 10^3 till 10 × 10^3 cells per well depending on cell line, were seeded in serum containing growth medium to 96-well plates (Sarstedt) and incubated. After 24 h, the growth medium was removed and cells were treated with various concentrations of conjugates 1 and 2 (32 nM–100 µM) or free Dau (0.1 nM–10 µM), dissolved in serum free medium and incubated for 24 h under standard conditions. The control wells were treated with serum free medium. After 24 h of treatment, the cells were washed twice with serum free medium and then cultured in serum containing medium for an additional 48 h. Afterward, the MTT assay was performed, in order to determine cell viability, by adding 20 µL of MTT solution (5 mg/mL in PBS) to each well and after 2 h of incubation at 37 °C, the supernatant was removed. The formazan crystals were dissolved in 100 µL of a 1:1 solution of DMSO (Sigma Aldrich):EtOH (Molar Chemicals Kft., Halásztelek, Hungary) and the absorbance was measured after 15 min. at λ = 570 nm by using a microplate reader (Bio-Rad, model 550, Hercules, CA, USA). The IC50 values of the conjugates and free drug were calculated while using GraphPad Prism 6 (GraphPad Software, San Diego, CA, USA). The experiments were done in triplicate and each experiment was repeated twice.
# H1975 = experiment: In vitro anti-proliferative activity (MTT assay); type: cell-based; conditions: Homo sapiens, NCI-H1975, H1975 (lung), 24 h treatment + 48 h culture, average ± SD
# Procedure: as §1, §2
# OVCAR-3 = experiment: In vitro anti-proliferative activity (MTT assay); type: cell-based; conditions: Homo sapiens, OVCAR-3 (ovarian), 24 h treatment + 48 h culture, average ± SD
# Procedure: as §1, §2
# PE/CA-PJ41 = experiment: In vitro anti-proliferative activity (MTT assay); type: cell-based; conditions: PE/CA-PJ41 (head and neck), 24 h treatment + 48 h culture, average ± SD
# Procedure: as §1, §2
# M24 = experiment: In vitro anti-proliferative activity (MTT assay); type: cell-based; conditions: Homo sapiens, M24 (melanoma), 24 h treatment + 48 h culture, average ± SD
# Procedure: as §1, §2
# A549 = experiment: In vitro anti-proliferative activity (MTT assay); type: cell-based; conditions: Homo sapiens, A549 (lung), 24 h treatment + 48 h culture, average ± SD
# Procedure: as §1, §2
# MDA-MB-231 = experiment: In vitro anti-proliferative activity (MTT assay); type: cell-based; conditions: Homo sapiens, MDA-MB-231 (breast), 24 h treatment + 48 h culture, average ± SD
# Procedure: as §1, §2
# PE/CA-PJ15 = experiment: In vitro anti-proliferative activity (MTT assay); type: cell-based; conditions: PE/CA-PJ15 (head and neck), 24 h treatment + 48 h culture, average ± SD
# Procedure: as §1, §2
# 4T1 = experiment: In vitro anti-proliferative activity (MTT assay); type: cell-based; conditions: Mus musculus, 4T1 (mice breast), 24 h treatment + 48 h culture, average ± SD
# Procedure: as §1, §2
# MCF-7 = experiment: In vitro anti-proliferative activity (MTT assay); type: cell-based; conditions: Homo sapiens, MCF7, MCF-7 (breast), 24 h treatment + 48 h culture, average ± SD
# Procedure: as §1, §2
# PC-3 = experiment: In vitro anti-proliferative activity (MTT assay); type: cell-based; conditions: Homo sapiens, PC-3 (prostate), 24 h treatment + 48 h culture, average ± SD
# Procedure: as §1, §2
# HepG2 = experiment: In vitro anti-proliferative activity (MTT assay); type: cell-based; conditions: Homo sapiens, HepG2 (liver), 24 h treatment + 48 h culture, average ± SD
# Procedure: as §1, §2
# MRC-5 = experiment: In vitro anti-proliferative activity (MTT assay); type: cell-based; conditions: Homo sapiens, MRC5, MRC-5 (normal fibroblast), 24 h treatment + 48 h culture, average ± SD
# Procedure: as §1, §2
# OVCAR-8 = experiment: In vitro anti-proliferative activity (MTT assay); type: cell-based; conditions: Homo sapiens, OVCAR-8 (ovarian), 24 h treatment + 48 h culture, average ± SD
# Procedure: as §1, §2
# B16 = experiment: In vitro anti-proliferative activity (MTT assay); type: cell-based; conditions: Mus musculus, B16 (mice melanoma), 24 h treatment + 48 h culture, average ± SD
# Procedure: as §1, §2
# WM983b = experiment: In vitro anti-proliferative activity (MTT assay); type: cell-based; conditions: Homo sapiens, WM983b (melanoma), 24 h treatment + 48 h culture, average ± SD
# Procedure: as §1, §2
# PANC-1 = experiment: In vitro anti-proliferative activity (MTT assay); type: cell-based; conditions: Homo sapiens, PANC-1 (pancreas), 24 h treatment + 48 h culture, average ± SD
# Procedure: as §1, §2
# HT168-M1/9 = experiment: In vitro anti-proliferative activity (MTT assay); type: cell-based; conditions: Homo sapiens, HT168-M1/9 (melanoma), 24 h treatment + 48 h culture, average ± SD
# Procedure: as §1, §2
# U87MG = experiment: In vitro anti-proliferative activity (MTT assay); type: cell-based; conditions: Homo sapiens, U-87 MG, U87MG (glioblastoma), 24 h treatment + 48 h culture, average ± SD
# Procedure: as §1, §2
# H1650 = experiment: In vitro anti-proliferative activity (MTT assay); type: cell-based; conditions: Homo sapiens, NCI-H1650, H1650 (lung), 24 h treatment + 48 h culture, average ± SD
# Procedure: as §1, §2
# A2780 = experiment: In vitro anti-proliferative activity (MTT assay); type: cell-based; conditions: Homo sapiens, A2780 (ovarian), 24 h treatment + 48 h culture, average ± SD
# Procedure: as §1, §2
# C26 = experiment: In vitro anti-proliferative activity (MTT assay); type: cell-based; conditions: Mus musculus, C26 (mice colon), 24 h treatment + 48 h culture, average ± SD
# Procedure: as §1, §2
# A2058 = experiment: In vitro anti-proliferative activity (MTT assay); type: cell-based; conditions: Homo sapiens, A2058 (melanoma), 24 h treatment + 48 h culture, average ± SD
# Procedure: as §1, §2
# HT-29 = experiment: In vitro anti-proliferative activity (MTT assay); type: cell-based; conditions: Homo sapiens, HT-29 (colon), 24 h treatment + 48 h culture, average ± SD
# Procedure: as §1, §2
# [5] = vs control, 1 and 2 10 mg/kg Dau content x6, free Dau 1 mg/kg x3, day 28, 7 animals
# [6] = SCID mice, i.p., 1 and 2 10 mg/kg Dau content x7, end day 30, free Dau 1 mg/kg x3, end day 23, 6 per group
# [7] = SCID mice, i.p., 1 and 2 15 mg/kg Dau content x6 + 7.5 mg/kg x1, free Dau 1 mg/kg x4, day 45, 7 per group
compound,measurement,setting,value
"COc1cccc2c1C(=O)c1c(O)c3c(c(O)c1C2=O)C[C@@](O)(C(C)=O)C[C@@H]3O[C@H]1C[C@H](N)[C@H](O)[C@H](C)O1 [Dau, daunorubicin]",Decrease of liver/body weight ratio compared to control,"[1]; 1 and 2 10 mg/kg Dau content x6, free Dau 1 mg/kg x3, day 28",9.8%
same,Animal body weight at the end of experiment compared to the start,"[1]; BALB/c mice, i.p., 1 and 2 10 mg/kg Dau content x6, free Dau 1 mg/kg x3, day 28, 7 per group",slightly decreased
same,Inhibition of proliferation index of lung metastases,"[1]; KI-67, vs control, 1 and 2 10 mg/kg Dau content x6, free Dau 1 mg/kg x3",27.8% and 28%
same,Decrease of proliferation index in primary tumor compared to control,"[1]; KI-67 positive cells, 400x, 1 and 2 10 mg/kg Dau content x6, free Dau 1 mg/kg x3, day 28",19%
same,Inhibition of number of micro-metastases in the lung compared to control,"[1]; KI-67 stained, per field of view 100x, 1 and 2 10 mg/kg Dau content x6, free Dau 1 mg/kg x3",33.7% and 34%
same,Decrease of spleen weight compared to control,"[1]; day 28, 7 per group, Figure S2",27.2%
same,Decrease of number of macro-metastases in lung,[1]; [5],55.4%
same,Decrease of number of macro-metastases in spleen,[1]; [5],64.3%
same,Decrease of liver/body weight ratio compared to control,"[2]; 1 and 2 10 mg/kg Dau content x7, day 30, free Dau 1 mg/kg x3, day 23",29.4%
same,Animal body weight at the end of experiment compared to the start,[2]; [6],significantly decreased
same,Reduction of tumor weight compared to control,[2]; [6],84.3% and 84%
same,Decrease of liver/body weight ratio compared to control,"[3]; 1 and 2 15 mg/kg Dau content x6 + 7.5 mg/kg x1, free Dau 1 mg/kg x4, day 45",16.8%
same,Decrease of body weight at the end of experiment compared to the beginning,[3]; [7],20%
same,Inhibition of tumor volume compared to control,[3]; [7],46.3% and 46%
same,Inhibition of tumor weight,[3]; [7],40.1%
same,Number of mice with metastases close to the primary tumor,"[3]; end of experiment day 45, control 5/5",four out of seven and 4/7 and 4/7 ^2
same,"Chronic toxicity: body weight, general looking and behavior",[4],could not observe a significant change in body weight
same,IC50,DU145,16.3 ± 4.6 nM
same,IC50,H1975,20.9 ± 2.7 nM
same,IC50,OVCAR-3,404 ± 9.4 nM
same,IC50,PE/CA-PJ41,45.6 ± 33.5 nM
same,IC50,M24,119 ± 25 nM
same,IC50,A549,69.3 ± 23.5 nM
same,IC50,MDA-MB-231,54.6 ± 7.4 nM
same,IC50,PE/CA-PJ15,50.5 ± 38.7 nM
same,IC50,4T1,56 ± 14.7 nM
same,IC50,MCF-7,63.9 ± 21 nM
same,IC50,PC-3,32.7 ± 4.7 nM
same,IC50,HepG2,22.9 ± 1.4 nM
same,IC50,MRC-5,288 ± 35.1 nM
same,IC50,OVCAR-8,186 ± 99.8 nM
same,IC50,B16,26 ± 8 nM
same,IC50,WM983b,49.8 ± 22.9 nM
same,IC50,PANC-1,526 ± 24.7 nM
same,IC50,HT168-M1/9,27.5 ± 9.1 nM
same,IC50,U87MG,126 ± 53.7 nM
same,IC50,H1650,50.3 ± 13.4 nM
same,IC50,A2780,10.4 ± 1.6 nM
same,IC50,C26,118 ± 8.6 nM
same,IC50,A2058,35.1 ± 14.9 nM
same,IC50,HT-29,202.9 ± 1 nM
